Drawing on patent US20180312493A1, “Antibiotic Compounds, Pharmaceutical Formulations Thereof And Methods And Uses Therefor” (Simon Fraser University, priority 2015, published 2018), this text covers MIC for four compounds.

For orientation: MIC means the least concentration at which growth counts as inhibited.

One test relates to S. aureus (ATCC29213). Description: In vitro susceptibility, broth microdilution (MIC). The test is classed as cell-based. Conditions: Staphylococcus aureus; S. aureus ATCC29213; 18-24 h, 37 C; read-out: Antimicrobial activity (MIC) S. aureus ATCC29213. In outline: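 CLSI 2-fold serial broth microdilution; K. pneumoniae C238 grown in L-broth, S. aureus ATCC 29213 in Mueller Hinton broth, plates incubated 18–24 h at 37 °C. MIC taken as lowest concentration giving complete growth inhibition by OD600 versus compound-free wells, background-subtracted.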

The next test concerns MRSA (ATCC BAA-1762). The test can be described thus: In vitro susceptibility, broth microdilution (MIC). The conditions noted are these: Staphylococcus aureus; MRSA ATCC BAA-1762; read-out: Antimicrobial activity (MIC) MRSA ATCC BAA1762. The test is classed as cell-based, methicillin resistant S. aureus. In outline:
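MIC determined by CLSI 2-fold broth microdilution in cation-adjusted Mueller–Hinton broth at ~2.5×10^5 CFU/ml, final compound 0.031–64 μg/ml, 18–24 h at 37 °C. MIC is the lowest concentration giving complete growth inhibition by background-corrected OD600 versus compound-free wells; duplicate or triplicate wells, replicated at least twice.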
In general terms: In broth dilution the organism is exposed to a series of concentrations in liquid medium.

Values after ≈ are worked out from the molar mass of the structure shown.

`C[N+](C)(C)CCON=C(c1c(-c2cc3cc(Cl)ccc3[nH]2)[nH]c2cc(Br)ccc12)C(F)(F)F` (racemic) [Compound 221, 2-(((1-(6-Bromo-5′-chloro-1H,1′H-[2,2′-biindol]-3-yl)-2,2,2-trifluoroethylidene)amino)oxy)-N,N,N-trimethylethan-1-aminium Iodide]: the MIC in the test on S. aureus (ATCC29213) stood at 1 µg/mL; in the test on MRSA (ATCC BAA-1762), 2 µg/mL.

Regarding `CN(C)CCOC(=O)c1c(/C=C/c2ccc(Cl)cc2)[nH]c2cc(Br)ccc12` [Compound 60, (E)-2-(Dimethylamino)ethyl 6-bromo-2-(4-chlorostyryl)-1H-indole-3-carboxylate], the MIC in the test with S. aureus (ATCC29213) was 4 µg/mL (≈ 8.93 µM).

On to `NCCOc1cc2[nH]c(-c3cc4ccc(Br)cc4[nH]3)cc2cc1Cl` [Compound 201, 2-((6′-Bromo-5-chloro-1H,1′H-[2,2′-biindol]-6-yl)oxy)ethan-1-amine], for which the MIC in the test on S. aureus (ATCC29213) and with MRSA (ATCC BAA-1762) was 4 µg/mL (≈ 9.88 µM) each time.

In the case of `NCCNC(=O)c1c(-c2cc3cc(Cl)ccc3[nH]2)[nH]c2cc(Br)ccc12` [Compound 206, N-(2-Aminoethyl)-6-bromo-5′-chloro-1H,1′H-[2,2′-biindole]-3-carboxamide], the MIC in the test on S. aureus (ATCC29213) and with MRSA (ATCC BAA-1762) was 8 µg/mL (≈ 18.5 µM) throughout.
